Test results as given in patent US20250243190A1, “NEW DEUTERATED RORGAMMA/RORGAMMAT INVERSE AGONISTS” (IMMUNIC AG, priority 2022, published 2025).

Columns and labels:
RORγt = biological target: T1, RORγt (Homo sapiens, UniProt P51449); assay: Indigo Biosciences Human RAR-related Orphan Receptor, Gamma Reporter Assay (in vitro inhibition of RORγt); format: cell-based; conditions: RORγt reporter cells, luciferase readout, 22-24 h incubation; read-out: IC50 range
T1 sequence (P51449 269-508 limits assumed): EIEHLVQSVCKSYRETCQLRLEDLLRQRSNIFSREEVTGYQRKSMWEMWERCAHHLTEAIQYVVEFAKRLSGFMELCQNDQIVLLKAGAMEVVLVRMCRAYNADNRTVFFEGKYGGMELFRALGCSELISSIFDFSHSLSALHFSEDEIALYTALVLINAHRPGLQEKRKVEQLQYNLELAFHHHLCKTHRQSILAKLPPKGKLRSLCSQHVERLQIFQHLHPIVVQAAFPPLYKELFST
Description: The in vitro inhibition of RORγt was measured using Indigo Biosciences Human RAR-related Orphan Receptor, Gamma Reporter Assay System (Product #IB304001-32) as described in the technical manual. In brief, 200 μL of Reporter Cells is dispensed into wells of the assay plate and preincubated for 4-6 h. Following the pre-incubation period, culture media are discarded and 200 µL/well of the prepared 1×-concentration treatment media are added. Following 22-24 h incubation, treatment media are discarded and Luciferase Detection Reagent is added. The intensity of light emission (in units of ‘Relative Light Units’; RLU) from each assay well is quantified using a plate-reading luminometer. Average values of RLU were determined for each treatment concentration. Non-linear regression analyses were performed and IC50 values determined using GraphPad Prism software. Provided inverse-agonists ursolic acid served as positive control.

SARS-CoV-2 = assay: Antiviral activity on SARS-CoV-2, viral replication (YFP) assay; format: cell-based; conditions: Severe acute respiratory syndrome coronavirus 2, read-out: EC50 range
From the text: (§1) The assay for viral replication (YFP) and the cell viability assay has been described in general in Pathogens 2021; 10:1076 and applied to compounds of the present invention furnished the following results: […]

[1] = CC50 accompanying the influenza A assay; format: cell-based; conditions: influenza A test
From the text: (§2) The assay for measuring influenza A has been described in general in Antimicrob. Agents Chemother. 2015; 59:2062 and applied to compounds of the present invention furnished the following representative results: […]

influenza A = assay: Antiviral activity on influenza A; format: cell-based; conditions: Influenza A virus; read-out: EC50 range
From the text: as §2

[2] = Microsomal stability, mouse liver microsomes; conditions: male, CD-1, mouse, mouse liver microsomes 10003 CD-1, male (Corning), 60 min, Example 100 experiment
Description: (§3) The conversion to the metabolite was monitored by HPLC-MS/MS. Verapamil served as positive control.
The metabolism was monitored by HPLC-MS/MS.
Verapamil served as positive control. The intrinsic clearance was calculated from the measured remaining compound values.

[3] = system: respiratory syncytial virus (RSV, A2 strain expressing eGFP, Long strain or RSV-B); assay: Antiviral activity on RSV in HEp-2 cells; format: cell-based; conditions: human respiratory syncytial virus, HEp-2, 45 h, read-out: IC50 (50% inhibitory concentration)
Description: One day before infection, 20,000 HEp-2 cells per well were seeded in a 96-well plate. Example 100 or DMSO vehicle controls were applied on cell monolayers at indicated concentrations and infected immediately after treatment with respiratory syncytial virus (RSV, A2 strain expressing eGFP, Long strain or RSV-B) at MOI 0.001. Cells were incubated for 45 h at 37° C. and 5% CO2. RSV infection was quantified either by counting green fluorescent infected cells using CTL-Immunospot reader or by ICC staining using RSV-targeting antibody. Shown as mean values of triplicate wells normalized to the corresponding vehicle-treated controls ±SD.

[4] = Mouse pharmacokinetics, oral or intravenous cassette dosing; format: in vivo, mice (C57BL/6J); conditions: C57BL/6J, whole blood, 3 female mice, 5 mg/kg oral cassette, sampling 0.5-24 h; for AUC(0-t): read-out: AUC0-24 h
Description: The pharmacokinetics of the compounds of the present invention was evaluated in 3 male and 3 female mice (C57BL/6J, 8 week old) after oral or intravenous cassette dosing to assess the oral bioavailability. Dose was 5 mg/kg (oral) and 1 mg/kg (intravenous), application volume was 5 mL/kg (oral) and 0.5 mL/kg (intravenous), vehicle was 5% solutol, 95% NaCl solution (at 0.9% saline concentration) for oral and 5% solutol, 5% Ethanol, 90% NaCl solution (at 0.9% saline concentration) for intravenous. At each designated time point (0.25, 0.5, 1, 2, 4, 8 and 24 h after dosing), 20 μL whole blood were collected from the tail vein into Li-heparin tubes, frozen on dry ice within 1-2 minutes of sampling and stored at −20° C. until processed for LC-MS analysis. The obtained data is as follows:
(§4) The pharmacokinetics of additional compounds of the present invention was evaluated in 3 female mice (C57BL/6J, 8 week old) after oral cassette dosing. Dose was 5 mg/kg, application volume was 5 mL/kg, vehicle was 5% solutol, 95% NaCl solution (at 0.9% saline concentration). At each designated time point (0.5, 1, 2, 4, 8 and 24 h after dosing), 20 μL whole blood were collected from the tail vein into Li-heparin tubes, frozen on dry ice within 1-2 minutes of sampling and stored at −20° C. until processed for LC-MS analysis. The obtained data is as follows:
as §4, with “(0.25, 0.5,” for “(0.5,”, “4 and” for “4,”, “8” for “8 and 24”, “analysis.” for “analysis. The obtained data is as follows:”

[5] = Cell viability assay accompanying the SARS-CoV-2 assay; format: cell-based; conditions: cell viability assay of the SARS-CoV-2 test
From the text: as §1

[6] = Microsomal stability, rat liver microsomes; conditions: rat liver microsomes 9078001 (Corning), 60 min, Example 102 experiment
Description: as §3
(§5) The metabolism was monitored by HPLC-MS/MS. Verapamil served as positive control. The intrinsic clearance was calculated from the measured remaining compound values.

[7] = Microsomal stability, human liver microsomes; conditions: both
Description: as §3, §5, §5

For [2H]C([2H])([2H])OC(=O)c1c(-c2c(F)cccc2Cl)noc1-c1cnn(-c2cccc(Cl)c2)c1C(F)(F)F [Example 100, Methyl-d3 3-(2-chloro-6-fluorophenyl)-5-(1-(3-chlorophenyl)-5-(trifluoromethyl)-1H-pyrazol-4-yl)isoxazole-4-carboxylate], the IC50 (RORγt) was less than 10 nM, the EC50 (SARS-CoV-2) was less than 100 nM and the CC50 [1] was 82000 nM. The EC50 (influenza A) was less than 100 nM, the microsomal CLint [2] was 24.4 µL/min/mg and the IC50 [3] was less than 50 nM. The Cmax [4] was 50.5 ng/mL, the half-life [4] was 6.4 h and the AUC(0-t) [4] was 201 ng·h/mL. For the same compound, the CC50 [5] was 50000 nM.
With [2H]C([2H])(OC1CC1)c1c(-c2c(F)cccc2Cl)noc1-c1cnn(-c2cccc(Cl)c2)c1C(F)(F)F [Example 102, 3-(2-Chloro-6-fluorophenyl)-5-(1-(3-chlorophenyl)-5-(trifluoromethyl)-1H-pyrazol-4-yl)-4-(cyclopropoxymethyl-d2)isoxazole] the IC50 (RORγt) was 10 to 100 nM, the microsomal CLint [6] was 29.4 µL/min/mg and the EC50 (SARS-CoV-2) was less than 100 nM. It also gave a CC50 [1] greater than 100000 nM, an EC50 (influenza A) of 100 to 1000 nM and a microsomal CLint [7] of 6.7 µL/min/mg. The Cmax [4] was 272 ng/mL, the half-life [4] was 7.2 h and the AUC(0-t) [4] was 970 ng·h/mL. For the same compound, the CC50 [5] was 17000 nM.
